According to patent publication US9700058B2, “Dispersion and detachment of cell aggregates” (priority 2011, dated 2017):

Key:
Assay type in all cases: cell-based
[1] = test system: Pseudomonas aeruginosa (ATCC 27853); assay: Detachment of pre-formed biofilm from a well (Examples 1-7); details: 24-hour peptide incubation, different concentrations, crystal violet OD 595 nm
Description: A biofilm was created by incubating Pseudomonas aeruginosa (ATCC 27853) overnight in wells at 37° C., allowing the microorganism to attach to the well surface. Eqt2Z-cyc peptide [Custom Peptide Synthesis; Peptron, Korea] at different concentrations was subsequently added to the wells and allowed to incubate overnight. The P.a. control was Pseudomonas aeruginosa alone.
(§1) A biofilm was created by culturing Pseudomonas aeruginosa (ATCC 27853) for 2 hours in a well at 37° C. Eqt2Z-cyc peptide at different concentrations was subsequently added to the well and allowed to incubate overnight. The Abac10-cyc peptide served as a negative control. The P.a. control was Pseudomonas aeruginosa alone.
as §1, with “for 24 hours.” for “overnight.”, “alone. […] Staining was performed with crystal violet at OD 595 nm.” for “alone.”
A biofilm was created by culturing Pseudomonas aeruginosa (ATCC 27853) for 2 hours in a well at 37° C. grZ14s-nvCyc peptide [Custom Peptide Synthesis; Peptron, Korea] at different concentrations was subsequently added to the well and allowed to incubate for 24 hours. The Abac10-cyc peptide served as a negative control. The P.a. control was Pseudomonas aeruginosa alone. […] Staining was performed with crystal violet at OD 595 nm.
(§2) A biofilm was created by culturing Pseudomonas aeruginosa (ATCC 27853) for 24 hours in a well at 37° C. Eqt2Z-cyc peptide at different concentrations was subsequently added to the well and allowed to incubate for 24 hours. The Abac10-cyc peptide served as a negative control. The P.a. control was Pseudomonas aeruginosa alone. […] Staining was performed with crystal violet at OD 595 nm.
as §2, with “grZ14s-nvCyc” for “Eqt2Z-cyc”
A biofilm was created by culturing Pseudomonas aeruginosa (ATCC 27853) for 24 hours in a well at 37° C. PhyscoZ-Cyc peptide [Custom Peptide Synthesis; Peptron, Korea] at different concentrations was subsequently added to the well and allowed to incubate for 24 hours. The P.a. control was Pseudomonas aeruginosa alone. […] Staining was performed with crystal violet at OD 595 nm.

[2] = test system: Pseudomonas aeruginosa; assay: Enhancement of antibiotic activity on 24-h biofilm, live bacteria by plating
Description: (§3) The ability of grZ14s-nvCyc to enhance the activity of Imipenem or Ampicillin was performed by first incubating the wells in a 96-well plate with Pseudomonas aeruginosa for 24 hours at 37° C. and 50 rpm shaking. The plate was washed 2 times with phosphate buffer solution. The wells were then filled with either the antibiotic alone or the antibiotic with grZ14s-nvCyc (100 ng/ml). The wells were then incubated for 48 hours (24 hours for Ampicillin) at 37° C. and 50 rpm shaking. 0.3% triton X-100 and 0.45% EDTA were then added to the wells, bringing the wells to a final concentration of 0.075% triton X-100 and 0.1125% EDTA. The plates were then sonicated in a bath-sonicator for 12 minutes. The wells were then serially diluted in PBS. The solutions were then seeded on a blood plate agar and incubated at 37° C. for 24 hours.

[3] = test system: Staphylococcus aureus; assay: Enhancement of Vancomycin activity on 24-h biofilm, live bacteria by plating; details: peptide 100 ng/ml with Vancomycin vs Vancomycin alone
Description: as §3, with “Vancomycin” for “Imipenem or Ampicillin”, “Staphylococcus aureus” for “Pseudomonas aeruginosa”, “24” for “48”, “hours” for “hours (24 hours for Ampicillin)”

[4] = test system: Candida albicans; assay: Enhancement of antifungal activity, BacTiter-Glo viability; details: 24 hours
Description: (§4) The ability of grZ14s-nvCyc to enhance the activity of Amphotericin was performed by first incubating the wells in a 96-well plate with Candida albicans for 24 hours at 37° C. and 50 rpm shaking. The plate was washed 2 times with phosphate buffer solution. The wells were then filled with either the antifungal alone or the antifungal with grZ14s-nvCyc (100 ng/ml). The wells were then incubated for 24 hours at 37° C. and 50 rpm shaking. The plates were again washed 2 times with PBS. BacTiter-Glo Microbial Cell Viability Assay (Promega, USA) was used following the manufacturer protocol and luminescence read.
as §4, with “Fluconazole” for “Amphotericin”

[5] = test system: Pseudomonas aeruginosa; assay: Enhancement of Kanamycin activity, BacTiter-Glo viability; details: peptide 100 ng/ml with Kanamycin vs Kanamycin alone, 24 hours
Description: as §4, with “Kanamycin” for “Amphotericin”, “Pseudomonas aeruginosa” for “Candida albicans”, “Kanamycin” for “the antifungal”

CSVHSFDYDWYNVC [grZ14s-nvCyc]
microorganism detachment ([1]; 2-hour biofilm): far greater microorganism detachment than in the P.a. control or negative control | microorganism detachment ([1]; 24-hour biofilm): far greater microorganism detachment than in the P.a. control or negative control | number of live bacteria ([2]; peptide 100 ng/ml with Ampicillin vs Ampicillin alone, 24 hours): much lower | number of live bacteria ([2]; peptide 100 ng/ml with Imipenem vs Imipenem alone, 48 hours): much lower | number of live bacteria [3]: much lower | number of live fungus ([4]; peptide 100 ng/ml with Amphotericin vs Amphotericin alone): much lower | number of live fungus ([4]; peptide 100 ng/ml with Fluconazole vs Fluconazole alone): much lower | number of live bacteria [5]: much lower
